Holding throughout (assay type): cell-based
In test [1] the test system is Aspergillus fumigatus. Kind of test: 3 day MIC, broth microdilution in 25% PDB. The conditions noted are these: for MIC: 72 h. On the procedure:
Stock solutions (concentrations of between 4,000 μg/mL to 10,000 μg/mL; stored at −18° C.) of the above antifungals were prepared in dimethyl sulfoxide (DMSO). The stock solutions were further diluted into sterile 25% potato dextrose broth (PDB) so that the diluted solutions could be used for the antifungal susceptibility studies. This way, a typical microdilution study would reach a final ratio of about 0.5-2% v/v of DMSO in 25% PDB.
Spore inocula were prepared in sterile distilled water with 0.1% Tween® 20 (a polysorbate surfactant), and a hemocytometer was used to determine the spore density. Typically, the spore inoculum was prepared fresh prior to each study, and the inoculum was appropriately diluted to a final concentration of 0.4-1×10^5 spores/mL or colony-forming unit (CFU)/mL in each study. The spore suspension can be stored in a refrigerator at 4° C. for up to one week.
The minimal inhibitory concentrations (MICs) for individual antifungal agents were determined by following a modified broth microdilution protocol CLSI (Clinical and Laboratory Standards Institute) M38-A2 [Clinical and Laboratory Standards Institute (2008) Reference method for broth dilution antifungal susceptibility testing of filamentous fungi—2nd edition: Approved Standard M38-A2, CLSI, Wayne, Pa.] where 25% potato dextrose broth (PDB) was used as the medium. The studies were performed in flat bottom, 96-well microtiter plates (Greiner Bio-One, Frickenhausen, Germany).
Plates sealed with clear polyester film (VWR, Radnor, Pa.) were incubated at a temperature of about 25° C. The progress of fungal growth was monitored at 48 hours and 72 hours.
On the technique in general: In broth dilution the organism is exposed to a series of concentrations in liquid medium.

Test [2] has as its system Stachybotrys chartarum. Kind of test: 3 day MIC, broth microdilution in 25% PDB. The conditions noted are these: for MIC: 72 h, read-out: 3 day MIC. In a few lines:
(§1)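 Broth microdilution in 25% potato dextrose broth containing about 0.5–2% v/v DMSO, spore inoculum at a final 0.4–1×10^5 spores/mL (CFU/mL). Plates sealed and incubated at about 25 °C; fungal growth checked at 48 and 72 h.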

Test [3] relates to Penicillium purpurogenum. Kind of test: 3 day MIC, broth microdilution in 25% PDB. The conditions noted are these: for MIC: 72 h, read-out: 3 day MIC. In a few lines:
as §1

Test [4] deals with Alternaria alternata. Kind of test: 3 day MIC, broth microdilution in 25% PDB. The settings on record: for MIC: 72 h, read-out: 3 day MIC. In a few lines: as §1
The test system of test [5] is Penicillium brevicompactum. Description: 3 day MIC, broth microdilution in 25% PDB. The conditions noted are these: for MIC: 72 h, read-out: 3 day MIC. Summed up:
as §1

For test [6], the system named is Penicillium chrysogenum. Description: 3 day MIC, broth microdilution in 25% PDB. The settings on record: for MIC: 72 h, read-out: 3 day MIC. Summed up:
as §1

Test [7] relates to Penicillium corylophilum. Description: 3 day MIC, broth microdilution in 25% PDB. The conditions noted are these: for MIC: 72 h, read-out: 3 day MIC. Summed up: as §1
In test [8] the test system is Stachybotrys chartarum. Kind of test: Fungus resistance test after painting over fungal growth (defacement rating). The conditions noted are these: painted over fungal growth, +100 μg/mL in Olympic Home paint. Summed up: (§2)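 Paint films with additives spiked from DMSO stocks were brushed over filter-paper discs already overgrown by fungus (defacement 3-5) on ASTM G21-13 nutrient-salts agar, extending 1-2 cm onto agar. Re-painted discs were incubated humid at elevated temperature, triplicate, and scored for regrowth by defacement rating.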

Test [9] has as its system Alternaria alternata. The test is described as above. The conditions noted are these: painted over fungal growth. Summed up:
as §2

Test [10] has as its system Penicillium chrysogenum. The test is described as above. The settings on record: painted over fungal growth, +200 μg/mL in Valspar QuikHide paint. Summed up:
as §2

Where [11] appears, read: Penicillium purpurogenum, 25% PDB.
The mark [12] stands for this setting: +100 μg/mL in Olympic Home paint, 7 days.
[13] abbreviates: +100 μg/mL in Olympic Home paint, 14 days.
[14] abbreviates: +100 μg/mL in Olympic Home paint, 21 days.
Setting [15] is: +1000 μg/mL in Olympic Home paint, 7 days.
[16] abbreviates: +1000 μg/mL in Olympic Home paint, 14 days.
Where [17] appears, read: +1000 μg/mL in Olympic Home paint, 21 days.

≈ marks a conversion by molar mass, not a printed value. Like-named read-outs stand apart in the source and are kept apart here.

As to `CCCCNC(=O)OCC#CI` [IPBC, 3-Iodo-2-propynylbutylcarbamate], the “3 day MIC” value in test [1] was 0.4 mg/L; in test [2] (25% PDB), 0.8 mg/L; in test [3] (setting [11]), less than 0.1 mg/L; in test [4] (25% PDB), 0.8 mg/L; in [5] (25% PDB) it was 0.4 mg/L; in [6] (25% PDB), 0.2 mg/L. Besides, in test [7] (25% PDB), the “3 day MIC” value came to 0.20 mg/L. In addition, the “Average defacement rating ± standard deviation” value in [8] (7 days) is 1.2 ± 1.3 (9); in [8] (14 days) it was 0.0 ± 0.0 (9); in test [8] (21 days), 0.0 ± 0.0 (9); in test [9] (setting [12]), 5.9 ± 2.9 (9); in [9] (setting [13]) it was 3.1 ± 2.4 (9); in test [9] (setting [14]), 3.0 ± 2.5 (9). In addition, the results for the “Average defacement rating ± standard deviation” value in [10] (7 days), in test [10] (14 days) and in test [10] (21 days) were 6.9 ± 3.8 (9), 4.8 ± 4.0 (9) and 3.1 ± 3.4 (9), respectively.

As to `c1ccc2[nH]c(-c3cscn3)nc2c1` [Thiabendazole], the minimal inhibitory concentration (MIC) (commonly the smallest concentration in the dilution series that meets the test's criterion for growth inhibition) in test [1] worked out at 6.25 mg/L (≈ 31.1 µM); in [2] (25% PDB), 25 mg/L (≈ 124 µM); in test [3] (setting [11]), 0.2 mg/L (≈ 0.994 µM); in [4] (25% PDB), 100 mg/L (≈ 497 µM); in test [5] (25% PDB), 0.4 mg/L (≈ 1.99 µM); in [6] (25% PDB) it was 0.4 mg/L (≈ 1.99 µM). For the same compound, the MIC in [7] (25% PDB) came to 0.39 mg/L (≈ 1.94 µM). In addition, the “Average defacement rating ± standard deviation” value in test [8] (7 days) is listed as 0.7 ± 1.6 (6); in test [8] (14 days) it was 0.2 ± 0.8 (6); in test [8] (21 days), 0.2 ± 0.8 (6); in test [9] (setting [12]) it was 0.0 ± 0.0 (6); in test [9] (setting [13]) it was 0.0 ± 0.0 (6); in test [9] (setting [14]), 0.0 ± 0.0 (6). Besides, the “Average defacement rating ± standard deviation” value is listed as 7.3 ± 1.3 (10) in test [9] (setting [15]); 3.6 ± 1.7 (10) in test [9] (setting [16]); 2.8 ± 1.1 (10) in test [9] (setting [17]); 6.7 ± 4.6 (9) in test [10] (7 days); 2.2 ± 4.4 (9) in test [10] (14 days); 2.2 ± 4.4 (9) in test [10] (21 days).

As to `N#Cc1c(Cl)c(Cl)c(Cl)c(C#N)c1Cl` [Chlorothalonil, chlorothalonil], the MIC was 0.2 mg/L (≈ 0.752 µM) in test [1]; less than 0.1 mg/L in test [2] (25% PDB); 0.78 mg/L (≈ 2.93 µM) in test [3] (setting [11]); 0.78 mg/L (≈ 2.93 µM) in [4] (25% PDB); less than 0.1 mg/L in [5] (25% PDB); less than 0.1 mg/L in [6] (25% PDB). The MIC in [7] (25% PDB) worked out at 0.39 mg/L (≈ 1.47 µM). In test [2] (25% PDB), the “3 day MIC” value is less than 0.1 mg/L. The “Average defacement rating ± standard deviation” value in test [8] (7 days) is 2.2 ± 2.1 (9); in test [8] (14 days), 2.0 ± 1.7 (9); in [8] (21 days) it was 2.0 ± 1.7 (9); in test [9] (setting [15]) it was 0.5 ± 1.4 (9); in test [9] (setting [16]) it was 0.2 ± 0.5 (9); in test [9] (setting [17]), 0.1 ± 0.3 (9). In addition, the “Average defacement rating ± standard deviation” value in test [10] (7 days), in [10] (14 days) and in test [10] (21 days) was 0.0 ± 0.0 (9) throughout.

With `Oc1cc(Cl)ccc1Oc1ccc(Cl)cc1Cl` [Triclosan, triclosan], the “3 day MIC” value in test [2] (25% PDB) was less than 0.1 mg/L. Moreover, the MIC in [2] was less than 0.1 mg/L; in test [3] (Penicillium), 3.13 mg/L (≈ 10.8 µM); in [4], 6.3 mg/L (≈ 21.8 µM); in test [5] it was 3.1 mg/L (≈ 10.7 µM); in test [6] it was 6.3 mg/L (≈ 21.8 µM); in test [7] it was 3.13 mg/L (≈ 10.8 µM). In addition, the “Average defacement rating ± standard deviation” value in [8] (7 days) is on record as 0.7 ± 1.2 (9); in test [8] (14 days) it was 0.7 ± 1.2 (9); in [8] (21 days) it was 0.6 ± 1.0 (9); in [9] (setting [12]), 3.6 ± 3.5 (9); in test [9] (setting [13]) it was 2.6 ± 3.7 (9); in [9] (setting [14]), 2.0 ± 2.9 (9). In addition, the “Average defacement rating ± standard deviation” value in [10] (7 days) was 0.9 ± 2.7 (9); in test [10] (14 days) it was 0.0 ± 0.0 (9); in test [10] (21 days), 0.0 ± 0.0 (9).

`O=C1C2CC=CCC2C(=O)N1SC(Cl)(Cl)Cl` (stereo not drawn) [Captan]: the MIC worked out at 12.5 mg/L (≈ 41.6 µM) in test [1]; 0.39 mg/L (≈ 1.3 µM) in [2] (25% PDB); 0.78 mg/L (≈ 2.59 µM) in [3] (setting [11]); 1.6 mg/L (≈ 5.32 µM) in test [4] (25% PDB); 0.78 mg/L (≈ 2.59 µM) in [5] (25% PDB); 0.78 mg/L (≈ 2.59 µM) in [6] (25% PDB). In addition, the MIC in test [7] (25% PDB) turned out to be 0.78 mg/L (≈ 2.59 µM). Moreover, the “Average defacement rating ± standard deviation” value is reported as 0.0 ± 0.0 (6) in test [8] (7 days); 0.0 ± 0.0 (6) in test [8] (14 days); 0.0 ± 0.0 (6) in test [8] (21 days); 3.6 ± 3.9 (9) in [9] (setting [12]); 2.5 ± 4.0 (9) in test [9] (setting [13]); 2.4 ± 3.8 (9) in test [9] (setting [14]). In addition, the “Average defacement rating ± standard deviation” value in test [10] (7 days), in [10] (14 days) and in [10] (21 days) was 0.0 ± 0.0 (9) in each case.

Values taken from patent publication US10160867B2, “Benzoxaborole-containing coating resistant to cellulose-supportable fungus” (THE PENN STATE RESEARCH FOUNDATION, priority 2015, dated 2018).
